Tests used:
Axl = biological target: T1, Axl (Mus musculus, UniProt Q00993); test: Immunoblots for Axl and phospho-Axl; type: cell-based; details: APC-WT and APC-KO MC38 cells; R428 0.2 μM 24 h; rmGAS6 24 h
T1 construct: immunoblots for Axl and phospho-Axl in APC-WT and APC-KO MC38 cells after R428 treatment (0.2 μM, 24 h); endogenous in cells; host or cells: MC38 mouse colorectal cancer cells, APC-WT and isogenic APC-KO
T1 sequence (Q00993 19-888): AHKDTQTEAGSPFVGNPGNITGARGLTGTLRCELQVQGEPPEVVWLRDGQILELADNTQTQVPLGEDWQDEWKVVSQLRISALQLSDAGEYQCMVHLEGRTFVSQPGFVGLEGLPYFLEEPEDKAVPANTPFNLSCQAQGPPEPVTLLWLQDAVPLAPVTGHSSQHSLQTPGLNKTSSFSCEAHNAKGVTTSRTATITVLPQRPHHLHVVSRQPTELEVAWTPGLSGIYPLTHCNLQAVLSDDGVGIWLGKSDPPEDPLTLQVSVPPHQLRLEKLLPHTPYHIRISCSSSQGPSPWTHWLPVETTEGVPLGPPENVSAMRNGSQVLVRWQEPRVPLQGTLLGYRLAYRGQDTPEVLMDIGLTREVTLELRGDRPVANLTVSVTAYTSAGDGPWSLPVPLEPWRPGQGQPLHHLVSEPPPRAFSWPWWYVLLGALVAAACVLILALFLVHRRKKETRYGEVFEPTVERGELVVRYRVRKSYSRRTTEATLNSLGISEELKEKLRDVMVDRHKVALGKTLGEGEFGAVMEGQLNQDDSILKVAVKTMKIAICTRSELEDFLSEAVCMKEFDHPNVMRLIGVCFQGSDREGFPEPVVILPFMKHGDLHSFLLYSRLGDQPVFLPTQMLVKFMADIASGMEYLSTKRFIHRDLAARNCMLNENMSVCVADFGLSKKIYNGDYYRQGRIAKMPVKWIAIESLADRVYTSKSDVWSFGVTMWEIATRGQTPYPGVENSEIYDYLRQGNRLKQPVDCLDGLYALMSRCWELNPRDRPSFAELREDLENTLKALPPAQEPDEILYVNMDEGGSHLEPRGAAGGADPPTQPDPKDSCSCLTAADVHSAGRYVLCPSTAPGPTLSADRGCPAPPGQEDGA
Description: (§1) The red box indicates Axl. […] Six replicates per group. two-tailed t-test. *P<0.05. […] Epithelial cells are stained with EpCam and indicated by GFP. X63 magnification. […] Total flux measurement of at the end point. **P<0.01. two-tailed t-test. […] Total flux measurement of tumors was done at the end point. **P<0.01. two-tailed t-test.
(§2) Gas6 is a ligand of Axl and is secreted mainly by tumor-associated macrophages in the TME (Loges et al., 2010), raising the possibility that macrophage-derived Gas6 might activate Axl to support the growth of APC-deficient cancer cells.
Cell lysates were prepared with RIPA lysis buffer (Roche) with protease inhibitor […] Immunoblotting was performed following standard protocol. Antibodies were purchased from the indicated companies.

[1] = system: LS180 and HT-29 cell lines; test: Colony formation assay with Gas6 and R428; type: cell-based, human; details: Gas6 25 ng with R428 1 μM, 36 hr
Description: as §1, §2
Colorectal cancer cell proliferation in vitro was assayed through colony formation. 1×10^3 cells were seeded in each well of 6-well plates and cultured for 5-7 days. At the end point, cells were fixed and stained with 0.5% crystal violet in 25% methanol for 1 hr. These studies were performed in triplicate.

[2] = system: APC-WT and APC-KO MC38 cells; test: Cell viability assay with R428; type: cell-based, mouse; details: R428 0.5 μM, 48 h
Description: as §1, §2

Raw264.7 = test: Transwell migration assay of macrophages in conditioned media; type: cell-based, mouse; details: recombinant CXCL5 protein 50 ng, 36 hr
Method: Two-way ANOVA analysis. […] Dox food was applied at day 5 post-orthotopic injection to induce TDO2 knockdown in vivo. n=4 per group. n.s.P>0.05, *P<0.05, […], ****P<0.0001. two-tailed t-test. […] FIGS. 12D and 12E show quantification of macrophages (F4/80+; FIG. 12D) and M2 macrophages (CD206+; FIG. 12E) in tumors shown in FIG. 12C. CyTOF data analyzed by FlowJo. Data represent mean±s.d., n=3 per group. *P<0.05, **P<0.01. two-tailed t-test. […] Recombinant CXCL5 protein (50 ng) and SX-682 (1 μM) were added to harvested condition media for 36 hr. Scale bar, 100 μm. n=3 biological replicates. Quantification is shown in lower panel. n.s. P>0.05, ***P<0.001, ****P<0.0001. two-tailed t-test. […] Clondronate liposomes or control encapsome liposomes were given intraperitoneally (100 μl) at day 2 post-orthotopic injection and three times a week. […]
Macrophages (1×10^4 for Raw264.7 and BMDM) were suspended in serum-free culture medium and seeded into 24-well Transwell inserts ([…]). […] After 24 h, the migrated macrophages were fixed and stained with crystal violet (0.05%, sigma), and then counted as cells per field of view under microscope or measured as OD590 nm (expressed as migration index) after crystal violet was dissolved.

Raw264.7 cells = test: RT-qPCR of M2 macrophage signature genes in Raw264.7 cells with conditioned media; type: cell-based, mouse; details: conditioned media from APC-KO MC38 cells, 30 h
Method: (§3) Scale bars, 50μm. […] Scale bars, 100 μm. […] (isTDO2 and isTDO2/shCXCL5 #2 groups, n=7, isTDO2/shCXCL5 #3, n=8). ****P<0.0001. two-tailed t-test. […] (shControl and shCXCL5 #2 groups, n=7, shCXCL5 #3, n=8). ****P<0.0001. two-tailed t-test.
(§4) RNA was isolated from cells using Trizol (Invitrogen) following the manufacturer's instructions. RNA (200-500 ng) was first treated with RNase-free DNase I using the DNA-free kit (Ambion) to remove all genomic DNA, and then reverse-transcribed into cDNA using an ABI High Capacity cDNA RT Kit (Invitrogen). The cDNA was analyzed using real-time quantitative PCR (SYBR Green, Invitrogen) with an Applied Biosystems 7900 Sequence Detection System. Each reaction was performed in triplicate. The expression of each gene was normalized by that of mouse Actin or human GAPDH.

BMDM [3] = test: RT-qPCR of M2 macrophage signature genes in BMDM; type: cell-based, mouse; details: CXCL5 50 ng, Kyn 1 mM, 24 hr
Method: as §3, §4

BMDM [4] = test: RT-qPCR analysis of Gas6 expression in BMDM; type: cell-based, mouse; details: Kyn 1 mM, CXCL5 50 ng, Gas6 25 ng, 24 hr
Method: as §1
(§5) To evaluate whether secreted factors from cancer cells might upregulate Gas6 expression in macrophages, BMDMs were incubated with conditioned media from MC38 cell lines. […] (FIG. 15H). Finally, to validate the roles of Gas6 in promoting tumor growth in vivo, CT26 cell lines and two independent Raw 264.7 shGas6 cell lines were co-injected into syngeneic Balb/CJ mice (FIG. 15I).
as §4

CT26 = test: Orthotopic co-injection of CT26 cells and Raw264.7 macrophages, tumor growth; type: in vivo, mouse; details: Raw264.7 pre-treated with 100 ng of CXCL5 for 48 h before injection; BalB/CJ mice
Method: as §1, §5
Mice were grouped by 5 animals in large plastic cages and were maintained under pathogen-free conditions. All animal studies were performed with the approval of MD Anderson Cancer Center's Institutional Animal Care and Use Committee (IACUC). NSG (NOD.Cg-Prkdc^scid Il2rg^tm1Wjl/SzJ), C57BL/J6J, and BALB/cJ mice were purchased from Jackson laboratory (Stock No: 005557, 000664, 000651). Colorectal orthotopic xenograft tumor models were established by following protocol (Tseng et al., 2007, JoVE).

Row | Compound | Axl phosphorylation (Axl) | effect on Gas6-promoted cancer cell growth [1] | sensitivity of APC-deficient vs APC-intact MC38 cells [2] | macrophage recruitment with CM from APC-KO TDO2 depleted MC38 cells (Raw264.7) | M2 macrophage markers decreased by TDO2 knockdown (Raw264.7 cells) | M2 macrophage markers (BMDM [3]) | Gas6 expression (BMDM [4]) | growth of CT26 tumors co-injected with pre-treated macrophages (CT26)
1 | Nc1nc(Nc2ccc3c(c2)CCC(N2CCCC2)CC3)nn1-c1cc2c(nn1)-c1ccccc1CCC2 (centres unmarked) [R428] | reduce Axl phosphorylation | reversed by R428 treatment | increased sensitivity | – | – | – | – | –
2 | CXCL5: recombinant CXCL5 protein, cytokine | – | – | – | rescue of macrophage recruitment | rescued by CXCL5 supplementation | M2 macrophage markers increased | increased Gas6 expression | promoted the growth of CT26 significantly

From patent US20230250433A1, “METHODS AND COMPOSITIONS FOR TREATMENT OF APC-DEFICIENT CANCER” (Board of Regents, The University of Texas System, priority 2020, published 2023)
